# Patent US20100022559A1, “BISOXIMES AS FUNGICIDES” (BAYER CROPSCIENCE AG, priority 2006, published 2010)
# Assay: logP determination by HPLC on a reversed-phase column (C 18), EEC Directive 79/831 Annex V.A8
# Assay type: physicochemical
# Conditions: method marked [a] in Table 1
# Experimental: The stated logP values were determined in accordance with EEC Directive 79/831 Annex V.A8 by HPLC (high performance liquid chromatography) on a reversed-phase column (C 18). Temperature: 43° C.
row,logP,Structure (SMILES)
1,6.50^[a],CC(=NOCC(C)(C)CON=C(C)c1cccc(Cl)n1)c1cccc(Cl)n1 [compound 569]
2,4.09^[a],Cc1cccc(C(=NOCC(C)CON=C(c2ccccc2)c2cccc(C)n2)c2ccccc2)n1 (mixture of isomers) [Compound 659]

# Same assay, conditions: method marked [b] in Table 1
row,logP,Structure (SMILES)
1,2.96^[b],CC(=NOCC(CON=C(C)c1cc(C)cc(C)n1)c1ccccc1)c1cc(C)cc(C)n1 (stereo not drawn) [Compound 554]
2,2.48^[b],CC(C)=CC1=NOC(CON=C(C)c2cc(C)cc(C)n2)(CON=C(C)c2cc(C)cc(C)n2)C1 (stereo not drawn) [compound 647]
3,4.49^[b],Cc1cccc(C(=NOCC(C)CON=C(c2cccc(C)n2)c2cccs2)c2cccs2)n1 (stereo not drawn) [compound 673]
4,2.62^[b],CC(=NOCC1(CON=C(C)c2cc(C)cc(C)n2)CC(C(C)(C)C)=NO1)c1cc(C)cc(C)n1 (stereo not drawn) [compound 642]
5,3.19^[b],CC(=NOCC1(CON=C(C)c2cc(C)cc(C)n2)CC(c2ccccc2Cl)=NO1)c1cc(C)cc(C)n1 (stereo not drawn) [compound 645]
6,4.74^[b] (isomer B),"CC(=NOCCCCCCON=C(C)c1sc(C)nc1C)c1cccc(C)n1 (single isomer, unassigned) [compound 543]"

# The next lines start with the molecule.
row,Structure (SMILES),logP
1,CCCC(=NOCC1(CON=C(CCC)c2cccc(C)n2)CC(C=C(C)C)=NO1)c1cccc(C)n1 (stereo not drawn) [compound 625],5.97^[b]
2,C=C(CON=Cc1cccc(C)n1)CON=Cc1cccc(C)n1 [compound 667],2.16^[b]
3,CC(=NOCC(C)CON=C(C)c1ccc[nH]1)c1ccc[nH]1 (mixture of isomers) [compound 566],3.47^[b]
4,CC(=NOCC1(CON=C(C)c2ccc(C)c(C)n2)CC(C(C)(C)C)=NO1)c1ccc(C)c(C)n1 (stereo not drawn) [compound 631],3.65^[b]

# Same assay, conditions: method marked [c] in Table 1
row,logP,Structure (SMILES)
1,4.72^[c],"CC(=NOCC1(CON=C(C)c2nc(C)ccc2C)CCC1)c1nc(C)ccc1C (single isomer, unassigned) [compound 760]"
2,6.33^[c],CC(=NOCC(CON=C(C)c1cc(C)cc(C)n1)c1ccccc1)c1cc(C)cc(C)n1 (stereo not drawn) [Compound 554]
3,3.62^[c],CC(=NOCC(C)CON=C(C)c1ccc[nH]1)c1ccc[nH]1 (mixture of isomers) [compound 566]

# Same assay, conditions: method marker [a] (footnote not shown); isomer A / isomer B / isomer mixture as noted in the cell
row,logP,Structure (SMILES)
1,4.00^[a],CC(=NOCC(F)(F)CON=C(C)c1cccc(C)n1)c1cccc(C)n1 [compound 86]
2,4.98^[a],CC(=NOCC(C)CON=C(C)c1nc(C)cs1)c1nc(C)cs1 (mixture of isomers) [compound 122]
3,2.23^[a],CC(=NOCCCON=C(C)c1ccc(C)c(C)n1)c1ccc(C)c(C)n1 [Compound 72]

# Second part, the molecule before the results:
row,Structure (SMILES),logP
1,"CCCC(=NOCCCON=C(CCC)c1ncccc1C)c1ncccc1C (single isomer, unassigned) [compound 99]",4.22^[a] (isomer A)
2,"Cc1cccnc1C(Cc1ccccc1)=NOCC(C)CON=C(Cc1ccccc1)c1ncccc1C (single isomer, unassigned) [compound 109]",6.00^[a] (isomer B)
3,"Cc1cccc(C(=NOCCCON=C(c2cccc(C)n2)C(C)C)C(C)C)n1 (single isomer, unassigned) [compound 89]",4.45^[a] (isomer A)
4,"Cc1cccc(C(CC(C)C)=NOCCCON=C(CC(C)C)c2cccc(C)n2)n1 (single isomer, unassigned) [compound 114]",5.92^[a] (isomer A)
5,Cc1cccc(C(CS(C)(=O)=O)=NOCC(C)CON=C(CS(C)(=O)=O)c2cccc(C)n2)n1 (stereo not drawn) [compound 137],3.08^[a]
6,"Cc1cccnc1C(CC(C)C)=NOCC(C)CON=C(CC(C)C)c1ncccc1C (single isomer, unassigned) [compound 102]",6.50^[a] (isomer B)

# Same assay, conditions: method marker [b]; isomer A / isomer B / isomer mixture as noted in the cell
row,logP,Structure (SMILES)
1,4.37^[b],C=C(CON=C(C)c1cccc(C)n1)CON=C(N)c1cc(C(F)(F)F)cc(C)n1 [compound 210]
2,1.92^[b],C=C(CON=C(C)c1cccc(C)n1)CON=C(N)c1nc(COC)c(C)c(COC)n1 [compound 183]
3,5.08^[b],C=C(CON=C(C)c1cccc(C)n1)CON=C(CC(C)C)c1ncccc1C (mixture of isomers) [compound 154]
4,1.32^[b],CC(=NOCCON=C(C)c1cccnc1)c1cccnc1 [Compound 32]
5,6.51^[b],CC(=NOCCON=C(C)c1cnc(-c2ccccc2)s1)c1cnc(-c2ccccc2)s1 [compound 48]

# Same assay, conditions: value marked [a]
row,logP,Structure (SMILES)
1,2.54^[a],CC(=NOCC(C)(C)CON=C(C)c1cc(C)cc(C)n1)c1cc(C)cc(C)n1 [Compound 276]
2,4.78^[a],CC(=NOCC(C)CON=C(C)c1cccc(C#N)n1)c1cccc(C#N)n1 (stereo not drawn) [Compound 800]
3,4.35^[a],CCSC(=NOCC(C)CON=C(SCC)c1cccc(C)n1)c1cccc(C)n1 (stereo not drawn) [Compound 820]
4,5.23^[a],CC(=NOCC(C)CON=C(C)c1cc(C2CC2)cc(C)n1)c1cc(Cl)cc(C)n1 (stereo not drawn) [compound 846]
5,1.40^[a],CC(=NOCC(C)CON=C(C)c1cc(N2CCCC2)cc(C)n1)c1cc(N2CCCC2)cc(C)n1 (stereo not drawn) [Compound 847]

# Continued, molecule first:
row,Structure (SMILES),logP
1,CCCC(=NOCC(C)CON=C(CCC)c1ccc(C)c(C)n1)c1ccc(C)c(C)n1 (stereo not drawn) [Compound 262],6.26^[a]
2,C=C(CON=C(c1cccc(C)n1)C1CC1)CON=C(c1cccc(C)n1)C1CC1 (mixture of isomers) [Compound 312],3.10^[a]
3,CC(=NOCCC(C)CCON=C(C)c1ccc(C(F)(F)F)cn1)c1ccc(C(F)(F)F)cn1 (stereo not drawn) [compound 832],7.36^[a]

# Same assay, conditions: value marked [b]
row,logP,Structure (SMILES)
1,4.57^[b],COc1ccc(C(C)=NOCC(C)(C)CON=C(C)c2cccc(C)n2)cc1OC [compound 414]
2,2.72^[b],"CC(=NOCC1(CON=C(C)c2nc(C)ccc2C)CCC1)c1nc(C)ccc1C (single isomer, unassigned) [compound 760]"
3,3.31^[b],CC(=NOC/C=C\CON=C(C)c1cccc(C)n1)c1cccc(C)n1 [compound 778]
4,4.06^[b],CCOC(=O)C(C)(CON=C(C)c1cccc(C)n1)CON=C(C)c1cccc(C)n1 (stereo not drawn) [compound 853]
5,3.94^[b],CC(=NOCCCCCCON=C(C)c1cccc(C)n1)c1cc(C)ccn1 [compound 386]
6,5.78^[b],C=C(CON=C(C)c1cccc(C)n1)CON=C(C)c1cccc(C(C)C)n1 [compound 479]
7,1.69^[b],CC(=NOCCCCON=C(C)c1cccnc1C)c1cccc(C)n1 [compound 448]
8,3.24^[b],CC(=NOCCCCON=C(Cc1ccccc1)c1ncccc1C)c1cccc(C)n1 [compound 528]
9,4.20^[b],C=C(CON=C(C)c1ccc2c(c1)OCO2)CON=C(C)c1cccc(C)n1 [compound 401]
10,4.06^[b],COCc1cc(C)nc(C(C)=NOCC(C)CON=C(C)c2cc(COC)cc(C)n2)c1 (stereo not drawn) [Compound 871]
11,6.16^[b],CC(=NOCCCCCCON=C(C)c1cccc2ccccc12)c1cccc(C)n1 [compound 395]
12,4.56^[b],CC(=NOCC(C)(C)CON=C(c1ncccc1C)C(C)C)c1cccc(C)n1 [compound 368]
13,2.37^[b],CC(=NOCCCCON=C(C)c1nccc(C)n1)c1cccc(C)n1 [compound 508]

# The remaining lines, values behind:
row,Structure (SMILES),logP
1,CC(=NOCCCCCCON=C(c1ccccc1)c1ncccc1C)c1cccc(C)n1 [compound 341],4.98^b]
2,COc1cc(OC)nc(C(C)=NOCC(C)CON=C(C)c2nc(OC)cc(OC)n2)n1 (stereo not drawn) [Compound 272],4.49^[b]
3,C=CCCC(=NOCC(=C)CON=C(C)c1cccc(C)n1)c1ncccc1C [compound 353],4.56^[b]

# Same assay, conditions: value marked [c]
row,logP,Structure (SMILES)
1,5.00^[c],CCOC(=O)C(C)(CON=C(C)c1cccc(C)n1)CON=C(C)c1cccc(C)n1 (stereo not drawn) [compound 853]
2,7.36^[c],CC(=NOCC(C)CON=C(C)c1cc(C2CC2)cc(C)n1)c1cc(Cl)cc(C)n1 (stereo not drawn) [compound 846]
3,5.57^[c],COCc1cc(C)nc(C(C)=NOCC(C)CON=C(C)c2cc(COC)cc(C)n2)c1 (stereo not drawn) [Compound 871]
4,5.93^[c],CC(=NOCC(C)CON=C(C)c1cc(N2CCCC2)cc(C)n1)c1cc(N2CCCC2)cc(C)n1 (stereo not drawn) [Compound 847]
